Test results published in ChEMBL document CHEMBL2010711, “Synthesis and comparative evaluation of 4-oxa- and 4-aza-podophyllotoxins as antiproliferative microtubule destabilizing agents” (Bioorg Med Chem Lett, 2012).
Active and inactive are the calls of the source.

Key:
OVCAR-8 = assay: Cytotoxicity against human OVCAR8 cells after 48 hrs by trypan blue dye exclusion assay; format: functional; conditions: OVCAR-8, 48 h
UACC-62 = assay: Cytotoxicity against human UACC62 cells after 48 hrs by trypan blue dye exclusion assay; format: functional; conditions: UACC-62, 48 h
IGROV-1 = assay: Cytotoxicity against human IGROV1 cells after 48 hrs by trypan blue dye exclusion assay; format: functional; conditions: IGROV-1, 48 h
HCT-15 = assay: Cytotoxicity against human HCT15 cells after 48 hrs by trypan blue dye exclusion assay; format: functional; conditions: HCT-15, 48 h
HCC 2998 = assay: Cytotoxicity against human HCC2998 cells after 48 hrs by trypan blue dye exclusion assay; format: functional; conditions: HCC 2998, 48 h
KM12 = assay: Cytotoxicity against human KM12 cells after 48 hrs by trypan blue dye exclusion assay; format: functional; conditions: KM12, 48 h
HL-60(TB) = assay: Cytotoxicity against human HL-60(TB) cells after 48 hrs by trypan blue dye exclusion assay; format: functional; conditions: HL-60, 48 h
MDA-MB-468 = assay: Cytotoxicity against human MDA-MB-468 cells after 48 hrs by trypan blue dye exclusion assay; format: functional; conditions: MDA-MB-468, 48 h
A498 = assay: Cytotoxicity against human A498 cells after 48 hrs by trypan blue dye exclusion assay; format: functional; conditions: A498, 48 h
HCT-116 = assay: Cytotoxicity against human HCT116 cells after 48 hrs by trypan blue dye exclusion assay; format: functional; conditions: HCT-116, 48 h
BT-549 = assay: Cytotoxicity against human BT549 cells after 48 hrs by trypan blue dye exclusion assay; format: functional; conditions: BT-549, 48 h
[1] = Cytotoxicity against human Hs 578T cells after 48 hrs by trypan blue dye exclusion assay; format: functional
HT-29 = assay: Cytotoxicity against human HT-29 cells after 48 hrs by trypan blue dye exclusion assay; format: functional; conditions: HT-29, 48 h
Paracentrotus lividus [2] = assay: Antimitotic activity against Paracentrotus lividus embryo assessed as concentration required to cause 100% cleavage alteration after 2.5 to 6 hrs; format: functional
Paracentrotus lividus [3] = assay: Antimitotic activity against Paracentrotus lividus embryo assessed as cleavage alteration at 2 fold less effective threshold concentration after 2.5 to 6 hrs; format: functional, organism-based
SN12C = assay: Cytotoxicity against human SN12C cells after 48 hrs by trypan blue dye exclusion assay; format: functional
TK-10 = assay: Cytotoxicity against human TK10 cells after 48 hrs by trypan blue dye exclusion assay; format: functional; conditions: TK-10, 48 h
LOX IMVI = assay: Cytotoxicity against human LOXIMVI cells after 48 hrs by trypan blue dye exclusion assay; format: functional
NCI-H460 = assay: Cytotoxicity against human NCI-H460 cells after 48 hrs by trypan blue dye exclusion assay; format: functional; conditions: NCI-H460, 48 h
T47D = assay: Cytotoxicity against human T47D cells after 48 hrs by trypan blue dye exclusion assay; format: functional
NCI/ADR-RES = assay: Cytotoxicity against human NCI/ADR-RES cells after 48 hrs by trypan blue dye exclusion assay; format: functional
NCI-H23 = assay: Cytotoxicity against human NCI-H23 cells after 48 hrs by trypan blue dye exclusion assay; format: functional; conditions: NCI-H23, 48 h
SR = assay: Cytotoxicity against human SR cells after 48 hrs by trypan blue dye exclusion assay; format: functional
EKVX = assay: Cytotoxicity against human EKVX cells after 48 hrs by trypan blue dye exclusion assay; format: functional
DU-145 = assay: Cytotoxicity against human DU145 cells after 48 hrs by trypan blue dye exclusion assay; format: functional; conditions: DU-145, 48 h
Paracentrotus lividus [4] = assay: Microtubule destabilizing activity in Paracentrotus lividus embryo assessed as concentration required to cause 100% embryo spinning after 15 mins to 20 hrs; format: functional
SW-620 = assay: Cytotoxicity against human SW620 cells after 48 hrs by trypan blue dye exclusion assay; format: functional; conditions: SW-620, 48 h
SK-MEL-28 = assay: Cytotoxicity against human SK-MEL-28 cells after 48 hrs by trypan blue dye exclusion assay; format: functional; conditions: SK-MEL-28, 48 h
SF-295 = assay: Cytotoxicity against human SF295 cells after 48 hrs by trypan blue dye exclusion assay; format: functional; conditions: SF-295, 48 h
COLO 205 = assay: Cytotoxicity against human COLO205 cells after 48 hrs by trypan blue dye exclusion assay; format: functional; conditions: COLO 205, 48 h
SNB-19 = assay: Cytotoxicity against human SNB19 cells after 48 hrs by trypan blue dye exclusion assay; format: functional; conditions: SNB-19, 48 h
786-0 = assay: Cytotoxicity against human 786-0 cells after 48 hrs by trypan blue dye exclusion assay; format: functional; conditions: 786-0, 48 h
CCRF-CEM = assay: Cytotoxicity against human CCRF-CEM cells after 48 hrs by trypan blue dye exclusion assay; format: functional
OVCAR-5 = assay: Cytotoxicity against human OVCAR5 cells after 48 hrs by trypan blue dye exclusion assay; format: functional; conditions: OVCAR-5, 48 h
MDA-MB-435 = assay: Cytotoxicity against human MDA-MB-435 cells after 48 hrs by trypan blue dye exclusion assay; format: functional; conditions: MDA-MB-435, 48 h
ACHN = assay: Cytotoxicity against human ACHN cells after 48 hrs by trypan blue dye exclusion assay; format: functional
NCI-H226 = assay: Cytotoxicity against human NCI-H226 cells after 48 hrs by trypan blue dye exclusion assay; format: functional; conditions: NCI-H226, 48 h
MDA-MB-231 = assay: Cytotoxicity against human MDA-MB-231 cells after 48 hrs by trypan blue dye exclusion assay; format: functional; conditions: MDA-MB-231, 48 h
A549 = assay: Cytotoxicity against human A549 cells after 48 hrs by trypan blue dye exclusion assay; format: functional; conditions: A549, 48 h
UO-31 = assay: Cytotoxicity against human UO31 cells after 48 hrs by trypan blue dye exclusion assay; format: functional; conditions: UO-31, 48 h
MOLT-4 = assay: Cytotoxicity against human MOLT4 cells after 48 hrs by trypan blue dye exclusion assay; format: functional; conditions: MOLT-4, 48 h
Malme-3M = assay: Cytotoxicity against human MALME-3M cells after 48 hrs by trypan blue dye exclusion assay; format: functional
U-251 = assay: Cytotoxicity against human U251 cells after 48 hrs by trypan blue dye exclusion assay; format: functional; conditions: U-251, 48 h
SF-539 = assay: Cytotoxicity against human SF539 cells after 48 hrs by trypan blue dye exclusion assay; format: functional; conditions: SF-539, 48 h
Paracentrotus lividus [5] = assay: Antimitotic activity against Paracentrotus lividus embryo assessed as concentration required to cause 100% cleavage arrest after 2.5 to 6 hrs; format: functional
Paracentrotus lividus [6] = assay: Microtubule destabilizing activity in Paracentrotus lividus embryo assessed as embryo spinning at 2 fold less effective threshold concentration after 15 mins to 20 hrs; format: functional, organism-based
SF-268 = assay: Cytotoxicity against human SF268 cells after 48 hrs by trypan blue dye exclusion assay; format: functional; conditions: SF-268, 48 h
RXF 393 = assay: Cytotoxicity against human RXF393 cells after 48 hrs by trypan blue dye exclusion assay; format: functional; conditions: RXF 393, 48 h
SNB-75 = assay: Cytotoxicity against human SNB75 cells after 48 hrs by trypan blue dye exclusion assay; format: functional; conditions: SNB-75, 48 h
NCI-H522 = assay: Cytotoxicity against human NCI-H522 cells after 48 hrs by trypan blue dye exclusion assay; format: functional; conditions: NCI-H522, 48 h
OVCAR-3 = assay: Cytotoxicity against human OVCAR3 cells after 48 hrs by trypan blue dye exclusion assay; format: functional; conditions: OVCAR-3, 48 h
M14 = assay: Cytotoxicity against human M14 cells after 48 hrs by trypan blue dye exclusion assay; format: functional; conditions: M14, 48 h
RPMI-8226 = assay: Cytotoxicity against human RPMI8226 cells after 48 hrs by trypan blue dye exclusion assay; format: functional; conditions: RPMI-8226, 48 h
PC-3 = assay: Cytotoxicity against human PC3 cells after 48 hrs by trypan blue dye exclusion assay; format: functional; conditions: PC-3, 48 h
Paracentrotus lividus [7] = assay: Antimitotic activity against Paracentrotus lividus embryo assessed as cleavage arrest at 2 fold less effective threshold concentration after 2.5 to 6 hrs; format: functional, organism-based
MCF7 = assay: Cytotoxicity against human MCF7 cells after 48 hrs by trypan blue dye exclusion assay; format: functional; conditions: MCF7, 48 h
SK-OV-3 = assay: Cytotoxicity against human SKOV3 cells after 48 hrs by trypan blue dye exclusion assay; format: functional; conditions: SK-OV-3, 48 h
SK-MEL-2 = assay: Cytotoxicity against human SK-MEL-2 cells after 48 hrs by trypan blue dye exclusion assay; format: functional; conditions: SK-MEL-2, 48 h
OVCAR-4 = assay: Cytotoxicity against human OVCAR4 cells after 48 hrs by trypan blue dye exclusion assay; format: functional; conditions: OVCAR-4, 48 h
HOP-92 = assay: Cytotoxicity against human HOP92 cells after 48 hrs by trypan blue dye exclusion assay; format: functional; conditions: HOP-92, 48 h

Molecule `COc1ccc2c(c1)OC1=C(C(=O)OC1)C2c1cc(OC)c(OC)c(OC)c1` (stereo not given) has a GI50 (OVCAR-8) of 788 nM, a GI50 (UACC-62) of 568 nM and a GI50 (IGROV-1) of 1130 nM. For the same molecule, the GI50 (HCT-15) was 508 nM, the GI50 (HCC 2998) was 1350 nM and the GI50 (KM12) was 464 nM. The GI50 (HL-60(TB)) was 249 nM, the GI50 (MDA-MB-468) was 232 nM and the GI50 (A498) was 295 nM. It also gave a GI50 (HCT-116) of 496 nM, a GI50 (BT-549) of 947 nM and a GI50 [1] of 377 nM. For the same molecule, the GI50 (HT-29) was 323 nM, the EC (Paracentrotus lividus [2]) was 5 nM and the Activity (Paracentrotus lividus [3]) was “inactive”. The GI50 (SN12C) was 993 nM, the GI50 (TK-10) was > 100000 nM and the GI50 (LOX IMVI) was 505 nM. For the same molecule, the GI50 (NCI-H460) was 1270 nM, the GI50 (T47D) was 489 nM and the GI50 (NCI/ADR-RES) was 334 nM. For the same molecule, the GI50 (NCI-H23) was 441 nM, the GI50 (SR) was 242 nM and the GI50 (EKVX) was 1420 nM. The GI50 (DU-145) was 648 nM, the EC (Paracentrotus lividus [4]) was 200 nM and the GI50 (SW-620) was 352 nM. The GI50 (SK-MEL-28) was 667 nM, the GI50 (SF-295) was 288 nM and the GI50 (COLO 205) was 309 nM. For the same molecule, the GI50 (SNB-19) was 553 nM, the GI50 (786-0) was 562 nM and the GI50 (CCRF-CEM) was 315 nM. The GI50 (OVCAR-5) was 4680 nM, the GI50 (MDA-MB-435) was 120 nM and the GI50 (ACHN) was 1630 nM. For the same molecule, the GI50 (NCI-H226) was 47500 nM, the GI50 (MDA-MB-231) was 1740 nM and the GI50 (A549) was 707 nM. It also gave a GI50 (UO-31) of 936 nM, a GI50 (MOLT-4) of 515 nM and a GI50 (Malme-3M) of 468 nM. The GI50 (U-251) was 731 nM, the GI50 (SF-539) was 376 nM and the EC (Paracentrotus lividus [5]) was 50 nM. For the same molecule, the Activity (Paracentrotus lividus [6]) was “inactive”, the GI50 (SF-268) was 731 nM and the GI50 (RXF 393) was 231 nM. It also gave a GI50 (SNB-75) of 172 nM, a GI50 (NCI-H522) of 378 nM and a GI50 (OVCAR-3) of 332 nM. It also gave a GI50 (M14) of 505 nM, a GI50 (RPMI-8226) of 816 nM and a GI50 (PC-3) of 482 nM. For the same molecule, the Activity (Paracentrotus lividus [7]) was “inactive”, the GI50 (MCF7) was 330 nM and the GI50 (SK-OV-3) was 368 nM. The GI50 (SK-MEL-2) was 439 nM, the GI50 (OVCAR-4) was 2650 nM and the GI50 (HOP-92) was 496 nM.
